# Data as given in article PMC10818749, “Toxicity Studies of Cardiac-Targeting Peptide Reveal a Robust Safety Profile” (Pharmaceutics, 2024).
# Ends that are not written are not given here.
# Assays:
# [1] = test system: GABAA; experiment: GABAA ion channel assay; type: cell-based; details: FLIPR Tetra, up to 30 µM, read-out: RC50 (the source's name)
# Procedure: Ion Channel Assays: Cell lines were grown, plated, and loaded with 1× loading buffer containing 1× dye and 2.5 mM freshly prepared probenecid. Assays were performed, and activity was measured using a FLIPR Tetra. Percent of activation and percent of inhibition were calculated to determine agonist and antagonist activity, respectively. […]
# in complementation with EA generating a unit of active β-gal and based assay for the detection of dopamine, norepinephrine or sero-production of a chemiluminescent signal upon the addition of Path- tonin transporter activity in cells expressing these transporters. The Hunter detection reagents. kit employs a fluorescent substrate that mimics the biogenic amine neurotransmitters that are taken into the cell through these specific transporters, resulting in increased intracellular fluorescence inten-sity. […]
# KINOMEscan® Assay fluorescence for improved signal/noise ratio. […]
# Compounds that bind the kinase active site and directly (sterically) be monitored within a single experiment. or indirectly (allosterically) prevent kinase binding to the immobi-lized ligand, will reduce the amount of kinase captured on the solid Calcium Assay […]
# kinase have no effect on the amount of kinase captured on the of changes in intracellular calcium. […] In a similar manner, dissociation con- an increase of dye fluorescence. […]
# [2] = molecular target: T1, ADRB1 (Homo sapiens, UniProt P08588); experiment: ADRB1 GPCR cAMP modulation assay; type: cell-based; details: compared to the controls
# T1 construct: host or cells: cAMP Hunter cell line
# T1 sequence (P08588 whole entry): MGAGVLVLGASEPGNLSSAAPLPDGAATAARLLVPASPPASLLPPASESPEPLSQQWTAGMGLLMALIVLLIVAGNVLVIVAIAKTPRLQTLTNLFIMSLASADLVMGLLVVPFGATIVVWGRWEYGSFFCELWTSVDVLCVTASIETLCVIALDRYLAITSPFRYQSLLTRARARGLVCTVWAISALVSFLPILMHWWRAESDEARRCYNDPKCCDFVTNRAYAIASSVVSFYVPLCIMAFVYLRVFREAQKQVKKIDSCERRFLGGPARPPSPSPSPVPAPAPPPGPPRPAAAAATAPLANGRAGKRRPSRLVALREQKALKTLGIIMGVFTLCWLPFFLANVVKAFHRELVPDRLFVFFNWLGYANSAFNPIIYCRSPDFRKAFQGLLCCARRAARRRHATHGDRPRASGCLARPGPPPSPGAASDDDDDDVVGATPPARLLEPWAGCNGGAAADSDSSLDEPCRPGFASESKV
# Procedure: GPCR cAMP Modulation Assays: cAMP Hunter cell lines were grown, plated, and subjected to Eurofins’ DiscoverX HitHunter cAMP XS+ assay. Gs agonist activity, Gi agonist activity, and antagonist activity-induced assays were read using chemiluminescent signal detection. The percentage of activity was calculated for Gs and Gi agonist assays, and the percentage of inhibition was calculated for Gs antagonist assays. […]
# cAMP Second ary Messenger Assay pound results in the release of calcium from intracellular stores and DiscoverX has developed a panel of cell lines stably expressing non- an increase in dye fluorescence that is measured in real-time. tagged GPCRs that endogenously signal through cAMP. […]
# The enzyme is split into two complementary portions: Enzyme Ac-ceptor (EA) and Enzyme Donor (ED). […] Active enzyme can then convert a chemilumines-cent substrate, generating an output signal detectable on a standard The NHR is tagged with the ProLink™ (PK) component of our EFC microplate reader. assay system, and the SRCP domain is fused to the Enzyme Ac-ceptor component (EA) expressed in the nucleus. […]
sequence,measurement,setting,value
APWHLSSQYSRT [CTP],EC50,[1]; agonist (opener),> 30 µM
same,IC50,[1]; antagonist (blocker),> 30 µM
same,agonist or antagonist action,[2],no significant action as either an agonist or antagonist
